The target in one series is IRF4. The following applies: ASO.
The target in the next series is HSD17B13. The following applies: ASO, HepaRG.

Where “and” joins values, the source holds several entries; their conditions need not be identical. Equal values may be shown once. After the bases stand the sugars from the 5' end (letter, count) and the backbone: PS all phosphorothioate, else s phosphorothioate and o phosphodiester by linkage. Methylation of C is not given here. e = 2'-O-(2-methoxyethyl) (MOE); k = constrained ethyl (cEt); d = 2'-deoxy (DNA); m = 2'-O-methyl

For CGCCAGTGACCACGAG (sugars k3 d10 k3, PS), in the series with IRF4 (SK-MEL-28, 4 µM), the target mRNA inhibition turned out to be 42%. Still for that read-out and setting: the figure for GTTTATTTCCTACTCT (sugars k4 d8 k4, PS) is 44%.

In the case of CCAGAGCAGTAAACGC (sugars k3 d10 k3, PS), in the series with IRF4 (MM.1R, 1 µM), the target mRNA inhibition worked out at 11%.

Regarding GAGTATTTCATAGCTA (sugars k3 d10 k3, PS), the target mRNA inhibition in the series with IRF4 (SK-MEL-28, 4 µM) is 71%.

In the case of TGCTTATCAATGCCAA (sugars k3 d10 k3, PS), the target mRNA inhibition with IRF4 (MM.1R, 0.074 µM) was 12%; in the series with IRF4 (MM.1R, 0.222 µM), 12%; with IRF4 (MM.1R, 0.666 µM) it was 16%; in the series with IRF4 (MM.1R, 1 µM), 35% and 31%; with IRF4 (MM.1R, 2 µM), 50%; with IRF4 (MM.1R, 4 µM) it was 69% and 66%. In addition, in the series with IRF4 (SK-MEL-28, 4 µM), the target mRNA inhibition came out at 70%. As to TCTAACCCTAATCCTA (sugars k3 d10 k3, PS), the target mRNA inhibition in the series with IRF4 (SK-MEL-28, 4 µM) came to 5%. For “GAAGCATTTTATCATC (sugars k3 d9 k3 e1, PS)”, the target mRNA inhibition in the series with IRF4 (MM.1R, 1 µM) was 1%. In the case of TGGCGGAGCATCAACA (sugars k3 d10 k3, PS), the target mRNA inhibition with IRF4 (SK-MEL-28, 4 µM) stood at 37%.

Take AGAGTGAGATGCGGAG (sugars k3 d10 k3, PS): the target mRNA inhibition with IRF4 (MM.1R, 1 µM) was 65% and 63%. On to ATGTGTATTACTCTTA (sugars k3 d10 k3, PS), for which the target mRNA inhibition with IRF4 (MM.1R, 1 µM) was 52% and 49%. AATAAAATGTCACGCC (sugars k3 d10 k3, PS) displayed a target mRNA inhibition with IRF4 (MM.1R, 1 µM) of 20%.

For GTGTGTGCACTCGCGC (sugars k3 d10 k3, PS), the target mRNA inhibition with IRF4 (MM.1R, 1 µM) was 19%. In the case of CACTATTAAACAGCAC (sugars k3 d10 k3, PS), in the series with IRF4 (SK-MEL-28, 4 µM), the target mRNA inhibition was determined as 19%. For TCTTCTGGATTGCTGA (sugars k3 d10 k3, PS), the target mRNA inhibition with IRF4 (MM.1R, 1 µM) was 20%.

Regarding “AGTTGTAAATGAGTCG (sugars kdddddddddkekeke, PS)”, the target mRNA inhibition with IRF4 (MM.1R, 1 µM) was 47%. Turning to GCTTTTGTCCACCTTT (sugars k3 d10 k3, PS), the target mRNA inhibition with HSD17B13 (0.02 µM) came to 28%; in the series with HSD17B13 (0.078 µM), 44%; in the series with HSD17B13 (0.313 µM), 61%; in the series with HSD17B13 (1 µM) it was 68%; with HSD17B13 (1.25 µM), 82%; in the series with HSD17B13 (5 µM), 97%. As for ATCAAATGTATGTGCT (sugars k3 d10 k3, PS), the target mRNA inhibition with HSD17B13 (1 µM) was found to be 73%.

Sequence “ATCTATCAGACTTCTT (sugars k3 d9 k3 e1, PS)” gave a target mRNA inhibition with HSD17B13 (1 µM) of 51%.

In turn, CCCGCCCTTAAGTCAT (sugars k3 d10 k3, PS) had a target mRNA inhibition in the series with HSD17B13 (1 µM) of 45%. The same measure, in the same setting: the same measure for “CATAATAATAGCTCTA (sugars k3 d1 m1 d8 k3, PS)”: 33%; for GACAACCCTTAACAAA (sugars k3 d10 k3, PS): 24%; for “TAAGATACCCAGGTTG (sugars k3 d9 k3 e1, PS)”: 58%. The same measure, in the same setting: the figure for GGGCTAATGAAAAAGG (sugars k3 d10 k3, PS) is 14%.

For the sequence AGATGTACACTGACAA (sugars k3 d10 k3, PS), in the series with HSD17B13 (1 µM), the target mRNA inhibition came to 66%. Sequence “CACATATGTGAAGAGC (sugars kkdddddddddkekek, PS)” yielded a target mRNA inhibition with HSD17B13 (1 µM) of 53%. In the series with HSD17B13 (1 µM), TAAAGGTGGGATAAAC (sugars k3 d10 k3, PS) gave a target mRNA inhibition of 0%.

For “AGAGTTGCACCGTTTT (sugars kkdddddddddkekek, PS)”, the target mRNA inhibition in the series with HSD17B13 (0.02 µM) turned out to be 6%; with HSD17B13 (0.078 µM), 18%; with HSD17B13 (0.313 µM), 38%; in the series with HSD17B13 (1 µM) it was 80%; with HSD17B13 (1.25 µM), 63%; in the series with HSD17B13 (5 µM) it was 81%.

For the sequence “TATTAGAAGTCAGCCC (sugars k3 d9 k3 e1, PS)”, the target mRNA inhibition with HSD17B13 (1 µM) was found to be 32%.

AAGAGTCAGTATCCTC (sugars k3 d10 k3, PS) yielded a target mRNA inhibition with HSD17B13 (1 µM) of 63%. Regarding CCCACAGAACCAATAT (sugars k3 d10 k3, PS), the target mRNA inhibition with HSD17B13 (1 µM) was determined as 16%. GAATATATACTAGGAT (sugars k3 d10 k3, PS) returned a target mRNA inhibition with HSD17B13 (1 µM) of 5%. As for “ATCTTATAAGACTATA (sugars k3 d9 k3 e1, PS)”, the target mRNA inhibition with HSD17B13 (1 µM) was determined as 53%.

For the origin of these results see the OligoGym collection.
